# Reference: patent US20150105252A1, “SUBSTITUTED PYRAZOLES AS HERBICIDES” (E I DU PONT DE NEMOURS AND COMPANY, priority 2013, published 2015)
# Assays:
# [1] = test system: crabgrass, large; experiment: Test A postemergence; format: in vivo, Digitaria sanguinalis
# In short: (§1)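 Pre- and postemergence greenhouse test; loam+sand; cpd in non-phytotox. solvent/surfactant; post at 1–2 leaf, 2–10 cm; visual score ~10 d, 0 = none, 100 = complete control.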
# [2] = test system: soybean; experiment: Test C postemergence; format: in vivo, Glycine max
# From the text: (§2) Seeds of plant species selected from blackgrass (Alopecurus myosuroides), ryegrass, Italian (Italian ryegrass, Lolium multiflorum), wheat (winter wheat, Triticum aestivum), galium (catchweed bedstraw, Galium aparine), corn (Zea mays), crabgrass, large (large crabgrass, Digitaria sanguinalis), foxtail, giant (giant foxtail, Setaria faberii), johnsongrass (Sorghum halepense), lambsquarters (Chenopodium album), morningglory (Ipomoea coccinea), nutsedge, yellow (yellow nutsedge, Cyperus esculentus), pigweed (redroot pigweed, Amaranthus retroflexus), ragweed (common ragweed, Ambrosia elation), soybean (Glycine max), barnyardgrass (Echinochloa crus-galli), oilseed rape (Brassica napus), waterhemp (common waterhemp, Amaranthus rudis), oat, wild (wild oat, Avena fatua), kochia (Kochia scoparia), Surinam grass (Brachiaria decumbens), foxtail, green (green foxtail, Setaria viridis), goosegrass (Eleusine indica), bromegrass, downy (downy bromegrass, Bromus tectorum), nightshade (eastern black nightshade, Solanum ptycanthum), cocklebur (common cocklebur, Xanthium strumarium), cupgrass, woolly (woolly cupgrass, Eriochloa villosa), bermudagrass (Cynodon dactylon), sunflower, (common oilseed sunflower, Helianthus annuus), Russian thistle (Salsola kali), and velvetleaf (Abutilon theophrasti) were planted into a blend of loam soil and sand and treated preemergence with test chemicals formulated in a non-phytotoxic solvent mixture which included a surfactant.
# (§3) At the same time, plants selected from these crop and weed species and also chickweed (common chickweed, Stellaria media), canarygrass (littleseed canarygrass, Phalaris minor), and deadnettle (henbit deadnettle, Lamium amplexicaule), were planted in pots containing Redi-Earth® planting medium (Scotts Company, 14111 Scottslawn Road, Marysville, Ohio 43041) comprising spaghnum peat moss, vermiculite, wetting agent and starter nutrients and treated with postemergence applications of test chemicals formulated in the same manner. Plants ranged in height from 2 to 18 cm (1- to 4-leaf stage) for postemergence treatments. Treated plants and controls were maintained in a greenhouse for 13 to 15 days, after which time all species were compared to controls and visually evaluated. Plant response ratings, summarized in Table C, are based on a scale of 0 to 100 where 0 is no effect and 100 is complete control. A dash (-) response means no test result.
# [3] = test system: ragweed; experiment: Test C preemergence; format: in vivo, Ambrosia elation
# From the text: as §2, §3
# [4] = test system: sedge, umbrella; experiment: Test B flood; format: in vivo, Cyperus difformis; conditions: 250 g ai/ha, visual rating on 0 to 100 scale (0 no effect, 100 complete control), 13 to 15 days
# In short: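 At two leaves, seedlings received the test compound via the paddy water, pots having been flooded 3 cm over the soil surface and kept so. Greenhouse-held for 13 to 15 days, then judged by eye against controls on a scale running 0 (no effect) to 100 (complete control).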
# [5] = test system: lambsquarters; experiment: Test C postemergence; format: in vivo, Chenopodium album; conditions: for Lambsquarters plant response rating: scale 0 to 100
# In short: (§4)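 Pre- and postemergence greenhouse screen; vehicle was a non-phytotoxic solvent mix with surfactant. Preemergence: treatment applied right after sowing into loam and sand. Postemergence: treated at 1–4 leaves. Visual rating at 13–15 days, 100 = complete control.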
# [6] = test system: ryegrass, Italian; experiment: Test C postemergence; format: in vivo, Lolium multiflorum
# In short: as §4
# [7] = test system: corn; experiment: Test A preemergence; format: in vivo, Zea mays; conditions: for Corn plant response rating (0 to 100 scale): visual injury approx. 10 days after treatment
# In short: as §1
# [8] = test system: pigweed; experiment: Test C postemergence; format: in vivo, Amaranthus retroflexus; conditions: for Pigweed plant response rating: scale 0 to 100
# From the text: as §2, §3
# [9] = test system: oat, wild; experiment: Test C postemergence; format: in vivo, Avena fatua; conditions: for Oat, Wild plant response rating: scale 0 to 100
# From the text: as §2, §3
# [10] = test system: morningglory; experiment: Test A preemergence; format: in vivo, Ipomoea spp.; conditions: for Morningglory plant response rating (0 to 100 scale): visual injury approx. 10 days after treatment
# In short: as §1
# [11] = test system: pigweed; experiment: Test A postemergence; format: in vivo, Amaranthus retroflexus
# In short: as §1
# [12] = test system: ryegrass, Italian; experiment: Test C preemergence; format: in vivo, Lolium multiflorum
# From the text: as §2, §3
# [13] = test system: wheat; experiment: Test C preemergence; format: in vivo, Triticum aestivum
# In short: as §4
# [14] = Postemergence, 500 g ai/ha, visual rating after approx. 10 days, 0 to 100 scale (0 no effect, 100 complete control)
# [15] = postemergence, 125 g ai/ha, about 10 days, visual rating on 0 to 100 scale (0 no effect, 100 complete control)
# [16] = postemergence, 62 g ai/ha, scale 0 to 100
# [17] = postemergence, 125 g ai/ha, scale 0 to 100, 0 no effect, 100 complete control
# [18] = Preemergence, 16 g ai/ha, scale 0 to 100
# [19] = Preemergence, 500 g ai/ha, 0 to 100 scale, 0 no effect, 100 complete control
# [20] = preemergence, 125 g ai/ha, visual injury, 0 to 100 scale, approx. 10 days
# [21] = Postemergence, 500 g ai/ha, 0 to 100 scale (0 no effect, 100 complete control)
# [22] = preemergence, 31 g ai/ha, visual rating, scale 0 to 100 (0 no effect, 100 complete control), 13 to 15 days
# [23] = preemergence, 62 g ai/ha, scale 0 to 100 (0 no effect, 100 complete control), 13 to 15 days
# [24] = preemergence, 125 g ai/ha, 13 to 15 days, scale 0 to 100, 0 = no effect, 100 = complete control
# [25] = preemergence, 250 g ai/ha, scale 0 to 100, 0 is no effect, 100 is complete control
# [26] = preemergence, 500 g ai/ha, visual injury after approx. 10 days, 0 to 100 scale (0 no effect, 100 complete control)
smiles,measurement,setting,value
CCCNC(=O)c1cc(CC)n(Cc2ccnc(C(F)(F)F)c2)n1 [Compound 75],"Crabgrass, Large plant response rating",[1]; [14],100
same,"Crabgrass, Large plant response rating",[1]; [15],100
same,"Plant response rating (scale of 0 to 100), Soybean","[2]; Postemergence, 16 g ai/ha",40
same,Soybean plant response rating,[2]; [16],75
same,"Plant response rating, Soybean",[2]; [17],90
same,"Plant response rating, Ragweed",[3]; [18],70
same,Ragweed plant response rating,"[3]; preemergence, 31 g ai/ha, scale 0 to 100 (0 no effect, 100 complete control), 13 to 15 days",90
same,"Plant response rating, Ragweed","[3]; preemergence, 62 g ai/ha, 13 to 15 days, scale 0 to 100, 0 = no effect, 100 = complete control",90
same,Ragweed plant response rating,"[3]; preemergence, 125 g ai/ha, scale 0 to 100, 0 is no effect, 100 is complete control",100
same,"Plant response rating, Sedge, Umbrella",[4],85
same,"Plant response rating (scale of 0 to 100), Lambsquarters","[5]; Postemergence, 16 g ai/ha",70
same,Lambsquarters plant response rating,"[5]; Postemergence, 31 g ai/ha",70
same,Lambsquarters plant response rating,"[5]; postemergence, 62 g ai/ha",85
same,"Plant response rating, Lambsquarters",[5]; [17],90
same,"Plant response rating (scale of 0 to 100), Ryegrass, Italian","[6]; Postemergence, 16 g ai/ha",5
same,"Ryegrass, Italian plant response rating",[6]; [16],5
same,"Plant response rating, Ryegrass, Italian",[6]; [17],10
same,Corn plant response rating,[7]; [19],90
same,Corn plant response rating,[7]; [20],80
same,"Plant response rating (scale of 0 to 100), Pigweed","[8]; Postemergence, 16 g ai/ha",40
same,Pigweed plant response rating,"[8]; Postemergence, 31 g ai/ha",40
same,Pigweed plant response rating,"[8]; postemergence, 62 g ai/ha",60
same,"Plant response rating, Pigweed",[8]; [17],80
same,"Plant response rating (scale of 0 to 100), Oat, Wild","[9]; Postemergence, 16 g ai/ha",5
same,"Oat, Wild plant response rating","[9]; Postemergence, 31 g ai/ha",5
same,"Oat, Wild plant response rating","[9]; postemergence, 62 g ai/ha",5
same,"Plant response rating, Oat, Wild",[9]; [17],25
same,Morningglory plant response rating,[10]; [19],90
same,Morningglory plant response rating,[10]; [20],90
same,Pigweed plant response rating,[11]; [14],100
same,Pigweed plant response rating,[11]; [15],100
O=C(NCC(F)(F)F)c1cc(CCF)n(Cc2ccnc(C(F)(F)F)c2)n1 [Compound 175],"Crabgrass, Large plant response rating",[1]; [21],90
same,"Crabgrass, Large plant response rating",[1]; [15],90
same,"Ryegrass, Italian plant response rating",[12]; [22],30
same,"Ryegrass, Italian plant response rating",[12]; [23],85
same,"Plant response rating, Ryegrass, Italian",[12]; [24],90
same,"Ryegrass, Italian plant response rating",[12]; [25],90
same,Ragweed plant response rating,[3]; [22],80
same,Ragweed plant response rating,[3]; [23],90
same,"Plant response rating, Ragweed",[3]; [24],98
same,Ragweed plant response rating,[3]; [25],95
same,"Plant response rating, Sedge, Umbrella",[4],85
same,Corn plant response rating (0 to 100 scale),"[7]; preemergence, 125 g ai/ha",50
same,Corn plant response rating,[7]; [26],80
same,Morningglory plant response rating (0 to 100 scale),"[10]; preemergence, 125 g ai/ha",100
same,Morningglory plant response rating,[10]; [26],100
same,Wheat plant response rating,[13]; [22],0
same,Wheat plant response rating,[13]; [23],50
same,"Plant response rating, Wheat",[13]; [24],85
same,Wheat plant response rating,[13]; [25],90
same,Pigweed plant response rating,[11]; [21],100
same,Pigweed plant response rating,[11]; [15],100
O=C(NC1CC1)c1cc(CCF)n(Cc2ccnc(C(F)(F)F)c2)n1 [Compound 176],"Crabgrass, Large plant response rating",[1]; [21],90
same,"Crabgrass, Large plant response rating",[1]; [15],80
same,"Ryegrass, Italian plant response rating",[12]; [22],5
same,"Ryegrass, Italian plant response rating",[12]; [23],10
same,"Plant response rating, Ryegrass, Italian",[12]; [24],70
same,"Ryegrass, Italian plant response rating",[12]; [25],85
same,Ragweed plant response rating,[3]; [22],85
same,Ragweed plant response rating,[3]; [23],100
same,"Plant response rating, Ragweed",[3]; [24],100
same,Ragweed plant response rating,[3]; [25],95
same,"Plant response rating, Sedge, Umbrella",[4],80
same,Corn plant response rating (0 to 100 scale),"[7]; preemergence, 125 g ai/ha",10
same,Corn plant response rating,[7]; [26],90
same,Morningglory plant response rating (0 to 100 scale),"[10]; preemergence, 125 g ai/ha",80
same,Morningglory plant response rating,[10]; [26],100
same,Wheat plant response rating,[13]; [22],0
same,Wheat plant response rating,[13]; [23],0
same,"Plant response rating, Wheat",[13]; [24],5
same,Wheat plant response rating,[13]; [25],85
same,Pigweed plant response rating,[11]; [21],100
same,Pigweed plant response rating,[11]; [15],100
CCNC(=O)c1cc(CCF)n(Cc2ccnc(C(F)(F)F)c2)n1 [Compound 178],"Crabgrass, Large plant response rating",[1]; [21],90
same,"Crabgrass, Large plant response rating",[1]; [15],80
same,"Plant response rating, Ryegrass, Italian",[12]; [18],0
same,"Ryegrass, Italian plant response rating",[12]; [22],5
same,"Ryegrass, Italian plant response rating",[12]; [23],5
same,"Plant response rating, Ryegrass, Italian",[12]; [24],15
same,"Plant response rating, Ragweed",[3]; [18],60
same,Ragweed plant response rating,[3]; [22],70
same,Ragweed plant response rating,[3]; [23],85
same,"Plant response rating, Ragweed",[3]; [24],90
same,"Plant response rating, Sedge, Umbrella",[4],85
same,Corn plant response rating (0 to 100 scale),"[7]; preemergence, 125 g ai/ha",0
same,Corn plant response rating,[7]; [26],50
same,Morningglory plant response rating (0 to 100 scale),"[10]; preemergence, 125 g ai/ha",80
same,Morningglory plant response rating,[10]; [26],100
same,"Plant response rating, Wheat",[13]; [18],0
same,Wheat plant response rating,[13]; [22],0
same,Wheat plant response rating,[13]; [23],0
same,"Plant response rating, Wheat",[13]; [24],0
same,Pigweed plant response rating,[11]; [21],100
same,Pigweed plant response rating,[11]; [15],100
CCCc1cc(C(=O)NOC(C)C)nn1Cc1cc(C(F)(F)F)nn1C [Compound 203],"Crabgrass, Large plant response rating",[1]; [21],90
same,"Crabgrass, Large plant response rating",[1]; [15],70
same,"Ryegrass, Italian plant response rating",[12]; [22],5
same,"Ryegrass, Italian plant response rating",[12]; [23],60
same,"Plant response rating, Ryegrass, Italian",[12]; [24],90
same,"Ryegrass, Italian plant response rating",[12]; [25],90
same,Ragweed plant response rating,[3]; [22],75
same,Ragweed plant response rating,[3]; [23],80
same,"Plant response rating, Ragweed",[3]; [24],98
same,Ragweed plant response rating,[3]; [25],100
same,"Plant response rating, Sedge, Umbrella",[4],95
same,Corn plant response rating (0 to 100 scale),"[7]; preemergence, 125 g ai/ha",20
same,Corn plant response rating,[7]; [26],80
same,Morningglory plant response rating (0 to 100 scale),"[10]; preemergence, 125 g ai/ha",10
same,Wheat plant response rating,[13]; [22],40
same,Wheat plant response rating,[13]; [23],75
same,"Plant response rating, Wheat",[13]; [24],90
same,Wheat plant response rating,[13]; [25],90
same,Pigweed plant response rating,"[11]; Postemergence, 125 g ai/ha, 0 to 100 scale, 0 no effect, 100 complete control",90
same,Pigweed plant response rating,[11]; [21],100
